Laboratory results taken from article PMC4445002, “Efficient inhibition of tumor angiogenesis and growth by a synthetic peptide blocking S100A4-methionine aminopeptidase 2 interaction” (Molecular Therapy. Methods & Clinical Development, 2015).

Key:
PC-3M-Luc tumors = assay: Tumor growth by bioluminescence imaging of PC-3M-Luc xenografts; assay type: in vivo, human tumor in athymic nude mice
Protocol: Figure 5 Inhibition of tumor angiogenesis and tumor growth of human prostate cancer cells by the NBD peptide. The peptide/atelocollagen was injected into the subcutaneous tumors on day 3 after inoculation of PC-3M-Luc cells. Atelocollagen alone was injected as controls. (a) Microvessel density. Anti-CD31-antibody staining was used to detect angiogenesis. Arrows show microvessels. The images were digitally processed for assessment of angiogenesis. (b) Inhibition of tumor growth by peptide delivery in vivo. Representative bioluminescent images of nude are shown. L, tumors treated with the CBD peptide; R, tumors treated with the NBD peptide. (c) The photon count of the bioluminescence is shown. […]
Animal experiments were performed in compliance with the guidelines of the Institute for Laboratory Animal Research at the National Cancer Center Research Institute. […] Ten minutes later, photons from animal whole bodies were counted using the IVIS imaging system (Caliper Life Sciences) according to the manufacturer’s instructions. Data were analyzed by living image 2.50 software (Caliper Life Sciences).
The peptide/atelocollagen complex was prepared by mixing equal volumes of atelocollagen (0.1% in PBS at pH 7.4) and peptide solution (1 mg/ml) with rotation for 30 minutes at 4 °C. […] Mice were monitored by bioluminescent imaging 14 days after the injection of the peptide/atelocollagen complex. […]

[1] = tested on: vinculin and integrin β1 focal adhesions in MSS31 cells; assay: Focal adhesion and F-actin immunofluorescence; assay type: cell-based, mouse; conditions: 5 μg/well, 18 hours
Protocol: Figure 7 Stimulation of the formation of focal contacts by the NBD peptide. MSS31 cells incubated with atelocollagen alone or the peptide/atelocollagen complexes were subjected to immunofluorescent staining and western blot analysis. (a) Formation of focal adhesions. The cells were immunostained with antivinculin or anti-integrin β1 antibody followed by Alexa Fluor 488-conjugated secondary antibody. F-actin was visualized with Atto 647N-Phalloidin. Nuclei were stained with DAPI. Scale bars: 50 μm. (b) Western blot analysis of focal adhesion proteins. Total cellular proteins were subjected to immunoblot analysis. (c) Relative expression level of vinculin (VCN), integrin β1 (ITGβ1) and p-FAK. The band intensity of VCN and ITGβ1 and p-FAK relative to that of β-actin and total FAK, respectively, was measured using ImageJ software and normalized to control cells.
(§1) MSS31 cells cultured in six-well plates were incubated with 5 μg/well of the NBD or the CBD peptide/atelocollagen complex or atelocollagen alone for 18 hours in Culture Slides (4 wells, BD Falcon) and were washed three times with DPBS and fixed for 10 minutes at 4 °C with 4% formaldehyde in DPBS. After permeabilizing with 0.5% Triton X-100 in DPBS for 4 minutes, the cells were treated with 3% bovine serum albumin in DPBS containing 0.1% glycine for 1 hour to block nonspecific binding sites. After washing with DPBS, the cells were incubated for 1 hour with primary antibodies, rinsed, and then stained with secondary antibodies. The primary antibodies used were polyclonal anti-S100A4, monoclonal anti-NMIIA antibody, monoclonal antivinculin antibody and polyclonal anti-integrin β1 antibody. The secondary antibody was Alexa Fluor 488-conjugated goat antirabbit IgG (Invitrogen) or Alexa Fluor 594-conjugated goat antimouse IgG (Invitrogen). F-Actin was visualized with Atto 647N-Phalloidin (Sigma-Aldrich). Nuclei were stained with 1 μg/ml DAPI. The slides were mounted with VECTASHIELD Mounting Medium (Vector Laboratories). The cells were observed under a confocal laser scanning microscope (Fluoview FV1000, Olympus, Japan).

NMIIA in MSS31 cells = assay: NMIIA filament assembly and S100A4-NMIIA colocalization by immunofluorescence; assay type: cell-based, mouse; conditions: atelocollagen complex, 5 μg/well, 18 hours
Protocol: Figure 6 Stimulation of NMIIA phosphorylation and filament assembly by the NBD peptide. MSS31 cells incubated with atelocollagen alone or the peptide/atelocollagen complexes were subjected to western blot analysis and immunofluorescent staining. (a) Western blot analysis of NMIIA phosphorylation. Total cellular proteins were subjected to immunoblot analysis. The band intensity of p-NMIIA relative to that of total NMIIA was measured using ImageJ software and normalized to control cells. (b) NMIIA assembly. MSS31 cells were simultaneously incubated with rabbit polyclonal anti-S100A4 antibody and mouse monoclonal anti-NMIIA antibody followed by Alexa Fluor 488-conjugated goat antirabbit IgG and Alexa Fluor 594-conjugated goat antimouse IgG. Nuclei were stained with DAPI. Scale bars: 50 μm. (c) Blockade of S100A4-NMIIA interaction by the NBD peptide. MSS31 cells were immunostained as in a. White arrows and yellow arrows indicate colocalized areas and independently localized areas of S100A4 and NMIIA, respectively. Bars: 20 μm. TEXT PRINTED IN THE PICTURE: (a) NBD: p-NMIIA/total NMIIA: 1.78 | (a) CBD: p-NMIIA/total NMIIA: 0.66
as §1, with “F-Actin was visualized with Atto 647N-Phalloidin (Sigma-Aldrich). Nuclei were stained with 1 μg/ml DAPI. The slides were mounted with VECTASHIELD Mounting Medium (Vector Laboratories). The cells were observed under a confocal laser scanning microscope (Fluoview FV1000, Olympus, Japan).” left out

MSS31 cells = assay: MSS31 cell growth; assay type: cell-based, mouse; conditions: atelocollagen complex; relative to control cells set to 100%; n = 4, P < 0.01
Protocol: Figure 8 Inhibition of cell cycle progression and cell growth by the NBD peptide. MSS31 cells were treated with atelocollagen alone or the NBD or the CBD peptide/atelocollagen complex in vitro. (a) Cell cycle progression. The cells were labeled with BrdU and then subjected to flow cytometry. (b) Cell growth. The values represent cell growth rate relative to that of control cells that is set to 100%. The NBD peptide inhibited the growth of MSS31 cells compared to the control cells (atelocollagen alone). Data represent the mean ± SD (n = 4), P < 0.01. TEXT PRINTED IN THE PICTURE: (a) NBD: S:13.2%; G1:70.7%; G2/M:9.6% | (a) CBD: S:32.1%; G1:55.4%; G2/M:8.9% | (a) peptide(−): S:36.7%; G1:49.6%; G2/M:9.7%

## NBD: N-terminal 39 amino acid sequence of SBD, from Arg170 to Ileu208; corresponding to MetAP2 (170–208) (REAAEAHRQVRKYVMSWIKPGMTMIEICEKLEDCSRKLI)
PC-3M-Luc tumors; single intra-tumor administration, human prostate cancer xenografts (abstract)
  vascularity and tumor regression: significantly reduced vascularity, resulting in tumor regression
PC-3M-Luc tumors; single intratumoral injection of 100 μg peptide in atelocollagen, bioluminescence on day 14, vs atelocollagen alone and CBD, n = 7, P < 0.05
  tumor growth: significant inhibition of the growth of tumors
[1]; atelocollagen complex, vinculin and integrin β1 staining
  number of focal adhesions per cell: greater number of vinculin- and integrin β1-containing focal adhesions per cell than the untreated and the CBD peptide-treated cells
[1]; immunofluorescence
  distribution of focal adhesions: focal adhesions were distributed uniformly
[1]; phalloidin staining
  formation of actin filaments: Formation of actin filaments was also prominent
NMIIA in MSS31 cells
  NMIIA filament assembly: stimulated filament assembly in MSS31 cells
  colocalization of S100A4 and NMIIA: the majority of S100A4 was not colocalized with NMIIA filaments
  distribution of NMIIA filaments: evenly distributed throughout the cells and showed no polarization
MSS31 cells
  growth of MSS31 cells: significantly inhibited the growth of MSS31 cells
